Consider two compounds from patent publication US20180179189A1, “ADIPATE FORMS AND COMPOSITIONS OF BIARYL INHIBITORS OF BRUTON'S TYROSINE KINASE” (BIOGEN MA INC., priority 2015, published 2018).

One data set has as its system Btk. The following applies: reported in the '853 application; read-out: IC50 in a pBTK assay; cited from earlier work.
Data set [1] can be described thus: pKa via potentiometric titration. It counts as physicochemical. An excerpt: Where this threshold is not met, non-ionic interactions (e.g., hydrogen bonds) can still occur between neutral acid and the base compounds to form, e.g., a co-crystal.
Data set [2] in a line: DVS (dynamic vapor sorption) test. It counts as physicochemical. The procedure: DVS was measured via a SMS (Surface Measurement Systems) DVS Intrinsic. The relative humidity at 25° C. were calibrated against deliquescence point of LiCl, Mg(NO3)2 and KCl.

By IC50 is commonly meant the concentration that gives 50% inhibition. Usually pKa stands for the negative logarithm of the acid dissociation constant. Low readings indicate a stronger acid or weaker base, high ones a weaker acid or stronger base. Regarding `Cc1cc(-c2ccnc(Nc3cnn(C)c3)n2)ccc1CNC(=O)N1CC(OC(C)C)C1` [Compound 1, 3-isopropoxy-N-(2-methyl-4-(2-((1-methyl-1H-pyrazol-4-yl)amino)pyrimidin-4-yl)benzyl)azetidine-1-carboxamide], the IC50 in the data set with Btk is […]. The pKa in data set [1] worked out at 3.31.

Take `Cc1cc(-c2ccnc(Nc3cnn(C)c3)n2)ccc1CNC(=O)N1CC(OC(C)C)C1` [Compound 2 Type II]: the “form change after the DVS test (XRPD)” value in data set [2] is recorded as “no form change”. Moreover, the “water uptake (DVS)” value in data set [2] (25° C./80% RH) is on record as 0.3%. In addition, in data set [2] (from DVS, 25° C./80% RH), the hygroscopicity entry is given as “slightly hygroscopic”.
